Publication PMC11213865, “Mechanisms contributing to inhibition of retinal ganglion cell death by cell permeable peptain-1 under glaucomatous stress” (Cell Death Discovery, 2024)
No end group written: not given here.

Columns and labels:
[1] = tested on: Human retinal endothelial cells; assay: Cell penetration and retention, western blot with anti-P1 monoclonal antibody; format: in vitro ADME; conditions: 16 h; for intracellular concentration (level of P1 in cells, densitometry relative to β-actin): cell uptake, 100 µM peptide, serum-free DMEM/F12 (low glucose), cell lysate, western blot with anti-P1 monoclonal antibody, mean ± SEM, n = 3
Experimental: Fig. 1 Conjugation with CPP increases the cell permeability of P1. A Human retinal endothelial cells were treated with vehicle (CONT), P1 or CPP-P1 (100 µM). Following incubation for 16 h, the levels of P1 in cells were detected by western blotting using an anti-P1 monoclonal antibody. Densitometric analysis was performed relative to β-actin levels (n = 3). Data represented as mean ± SEM, One-way ANOVA followed by Tukey’s multiple comparisons test, ***p < 0.001, ns-not significant. The entire western blot image is shown in Supplementary Figure 1. B Human retinal explants comparing the difference in neuroprotective efficacy of P1 with and without the CPP. C Representative images, RBPMS, Scale bar = 100 µm.
Human retinal endothelial cells were incubated with vehicle, P1, or CPP-P1 (100 µM) in serum-free DMEM/F12 (low glucose) medium for 16 h. Cells were treated with 1X RIPA buffer containing protease inhibitor cocktail and cell lysates were prepared. Western blot was performed using an anti-P1 monoclonal antibody with β-actin as the loading control (n = 3).

[2] = tested on: RGC; conditions: accumulates within RGC somas in a time-dependent manner; cited from earlier work

Row | Sequence | intracellular concentration (level of P1 in cells, densitometry relative to β-actin) [1] | RGC permeability [2] | cell permeability of CPP-P1 relative to P1 ([1]; 100 µM, human retinal endothelial cells, western blot)
1 | DRFSVNLDVKHFSPEELKVK [P1] | 0.23 ± 0.01 | RGC-permeable | 
2 | VPTLKDRFSVNLDVKHFSPEELKVK [CPP-P1] | 1.41 ± 0.17 |  | approximately seven
